Reference: patent US20240124404A1, “COMPOSITION FOR TREATING DISEASES RELATED TO ADVANCED GLYCATION END PRODUCTS COMPRISING INDOLE DERIVATIVE” (METACEN THERAPEUTICS, priority 2021, published 2024)
Read-outs that look alike come from different tables or passages of the source.

Assays:
[1] = Methylglyoxal (MGO) trapping ability: fluorescence intensity of reaction product; format: biochemical; settings: compound 1.0 mM in MGO+PBS pH 7.4, 37° C., 1 day; ex 355 nm / em 460 nm; 10×10^3 or more = trapping ability
Description: Methylglyoxal (MGO) is a main precursor of advanced glycation end products that cause complications due to diabetes mellitus. Successful trapping of methylglyoxal (MGO) can inhibit the production of advanced glycation end products.
A mixture was prepared by adding methylglyoxal (MGO) to phosphate buffered saline (PBS, Cat no. 10010023, pH 7.4). […] The fluorescence intensity of the reaction product was measured at an excitation wavelength of 355 nm and an emission wavelength of 460 nm using a VICTOR™X3 multilabel plate reader.
The higher the fluorescence intensity measured from the reaction product, the higher the ability of the compound to trap methylglyoxal. In addition, in this experimental example, when the fluorescence intensity was 10×10^3 or more, it was determined that the compound had the ability to trap methylglyoxal.

[2] = Methylglyoxal (MGO) trapping ability: free MGO concentration by HPLC; format: biochemical; settings: compound 1:1 with MGO in PBS pH 7.4, 37° C.; for MGO concentration on day 7: MGO + PBS control 436.38; for MGO concentration on day 1: MGO + PBS control 499.53
Description: Specifically, a mixture was prepared by adding methylglyoxal (MGO) to phosphate buffered saline (PBS, Cat no. 10010023, pH 7.4). The compound of the present invention was added to the mixture (MGO+PBS) at a concentration of 1:1 with methylglyoxal (MGO) and reacted, and then cultured at 37° C. for 1 day.

[3] = system: SH-SY5Y cells; assay: Protection against MGO-induced cytotoxicity in SH-SY5Y cell line (MTT); settings: Homo sapiens
Description: Specifically, SH-SY5Y cells were dispensed at 2×10^4 cells/well in a 96 well plate. Each cell line was pre-/post-treated with the compound of the present invention at a concentration of 500 nM or aminoguanidine (AG) at a concentration of 1 mM for 1 hour, and then pre-/post-treated with 500 μM MGO, and cultured for 24 hours. The medium was removed and then treated with 0.5 mg/ml 3-(4,5-dimethylthiazol-2-yl)-2,5-diphenyltetrazolium bromide (MTT) solution for 1 hour, and the reduced formazan was dissolved in 150 μl of DMSO, and the cell viability was measured by a microspectrophotometer at a wavelength of 570 nm.

[4] = system: N2a cells; assay: Protection against MGO-induced cytotoxicity in N2a cell line (MTT); settings: Mus musculus
Description: Specifically, N2a cells were dispensed at 2×10^4 cells/well in a 96 well plate. Each cell line was pre-/post-treated with the compound of the present invention at a concentration of 500 nM or aminoguanidine (AG) at a concentration of 1 mM for 1 hour, and then pre-/post-treated with 500 μM MGO, and cultured for 24 hours. The medium was removed and then treated with 0.5 mg/ml 3-(4,5-dimethylthiazol-2-yl)-2,5-diphenyltetrazolium bromide (MTT) solution for 1 hour, and the reduced formazan was dissolved in 150 μl of DMSO, and the cell viability was measured by a microspectrophotometer at a wavelength of 570 nm.

[5] = 24 h, read-out: Cell viability, Post-treatment
[6] = read-out: Cell viability, Pre-treatment

| Compound | Fluorescence intensity on day 1 (×10^3) [1] | MGO concentration on day 7 [2] [µM] | MGO concentration on day 1 [2] [µM] | viability at 1000 µM [3, 5] [%] | viability at 1000 µM [3, 6] [%] | viability at 1000 µM [4, 5] [%] | viability at 1000 µM [4, 6] [%] |
| --- | --- | --- | --- | --- | --- | --- | --- |
| NCC(N)Cc1c[nH]c2ccc(O)cc12 (stereo not shown) [Compound 30, 3-(2,3-diaminopropyl)-1H-indol-5-ol] | 156.92 ± 1.22 ×10^3 | 16.43 | 235.58 | – | – | – | – |
| N=C(N)NN [AG, aminoguanidine] | – | – | – | 52.01 ± 0.24 | 84.7 ± 1.75 | 102 ± 11.9 | 111 ± 9.32 |
| N[C@H](CO)Cc1c[nH]c2ccc(O)cc12 [Compound 29, (S)-3-(2-amino-3-hydroxypropyl)-1H-indol-5-ol (L-tryptophanol)] | 362.50 ± 17.85 ×10^3 | 0 | 18.56 | – | – | – | – |
| N#CC(N)Cc1c[nH]c2ccc(O)cc12 (stereo not shown) [Compound 31, 2-amino-3-(5-hydroxy-1H indol-3-yl)propanenitrile] | 14.58 ± 0.34 ×10^3 | 0 | 7.30 | – | – | – | – |
